Reference: ChEMBL document CHEMBL3991601, “The target landscape of clinical kinase drugs” (Science, 2017)
Calls of active or inactive are those of the source. For most assays here, no stated cut-off is given here; in the data, actives have a measured Kd and inactives only a lower limit.

Legend:
[1] = target: AP2-associated protein kinase 1 (Homo sapiens, UniProt Q2M2I8)
[2] = target: Serine/threonine-protein kinase SIK3 (Homo sapiens, UniProt Q9Y2K2)
[3] = target: Protein kinase C beta type (Homo sapiens, UniProt P05771)
Chain of Protein kinase C beta type (P05771 whole entry, the tested form may be a part): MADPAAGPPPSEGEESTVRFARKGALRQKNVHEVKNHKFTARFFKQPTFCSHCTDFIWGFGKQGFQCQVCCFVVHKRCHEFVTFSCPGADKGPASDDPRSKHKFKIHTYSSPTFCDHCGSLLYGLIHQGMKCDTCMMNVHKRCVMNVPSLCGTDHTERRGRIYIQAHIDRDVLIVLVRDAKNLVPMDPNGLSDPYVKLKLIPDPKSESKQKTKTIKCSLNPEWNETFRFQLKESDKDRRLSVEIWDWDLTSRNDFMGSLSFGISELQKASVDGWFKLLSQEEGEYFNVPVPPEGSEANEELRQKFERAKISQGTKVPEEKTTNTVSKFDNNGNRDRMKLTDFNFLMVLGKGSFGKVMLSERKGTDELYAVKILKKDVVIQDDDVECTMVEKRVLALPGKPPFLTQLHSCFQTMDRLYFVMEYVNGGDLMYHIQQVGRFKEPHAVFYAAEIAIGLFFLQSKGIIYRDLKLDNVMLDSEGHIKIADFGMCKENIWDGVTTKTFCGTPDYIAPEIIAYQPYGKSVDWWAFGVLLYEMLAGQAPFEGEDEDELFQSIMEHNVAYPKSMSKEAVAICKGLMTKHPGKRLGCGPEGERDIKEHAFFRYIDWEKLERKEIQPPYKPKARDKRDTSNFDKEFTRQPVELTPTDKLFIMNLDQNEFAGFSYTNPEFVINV

LIM domain kinase 1 = LIM domain kinase 1 (Homo sapiens, UniProt P53667)
[4] = target: Myosin light chain kinase, smooth muscle (Homo sapiens, UniProt Q15746)
Chain of Myosin light chain kinase, smooth muscle (Q15746 whole entry): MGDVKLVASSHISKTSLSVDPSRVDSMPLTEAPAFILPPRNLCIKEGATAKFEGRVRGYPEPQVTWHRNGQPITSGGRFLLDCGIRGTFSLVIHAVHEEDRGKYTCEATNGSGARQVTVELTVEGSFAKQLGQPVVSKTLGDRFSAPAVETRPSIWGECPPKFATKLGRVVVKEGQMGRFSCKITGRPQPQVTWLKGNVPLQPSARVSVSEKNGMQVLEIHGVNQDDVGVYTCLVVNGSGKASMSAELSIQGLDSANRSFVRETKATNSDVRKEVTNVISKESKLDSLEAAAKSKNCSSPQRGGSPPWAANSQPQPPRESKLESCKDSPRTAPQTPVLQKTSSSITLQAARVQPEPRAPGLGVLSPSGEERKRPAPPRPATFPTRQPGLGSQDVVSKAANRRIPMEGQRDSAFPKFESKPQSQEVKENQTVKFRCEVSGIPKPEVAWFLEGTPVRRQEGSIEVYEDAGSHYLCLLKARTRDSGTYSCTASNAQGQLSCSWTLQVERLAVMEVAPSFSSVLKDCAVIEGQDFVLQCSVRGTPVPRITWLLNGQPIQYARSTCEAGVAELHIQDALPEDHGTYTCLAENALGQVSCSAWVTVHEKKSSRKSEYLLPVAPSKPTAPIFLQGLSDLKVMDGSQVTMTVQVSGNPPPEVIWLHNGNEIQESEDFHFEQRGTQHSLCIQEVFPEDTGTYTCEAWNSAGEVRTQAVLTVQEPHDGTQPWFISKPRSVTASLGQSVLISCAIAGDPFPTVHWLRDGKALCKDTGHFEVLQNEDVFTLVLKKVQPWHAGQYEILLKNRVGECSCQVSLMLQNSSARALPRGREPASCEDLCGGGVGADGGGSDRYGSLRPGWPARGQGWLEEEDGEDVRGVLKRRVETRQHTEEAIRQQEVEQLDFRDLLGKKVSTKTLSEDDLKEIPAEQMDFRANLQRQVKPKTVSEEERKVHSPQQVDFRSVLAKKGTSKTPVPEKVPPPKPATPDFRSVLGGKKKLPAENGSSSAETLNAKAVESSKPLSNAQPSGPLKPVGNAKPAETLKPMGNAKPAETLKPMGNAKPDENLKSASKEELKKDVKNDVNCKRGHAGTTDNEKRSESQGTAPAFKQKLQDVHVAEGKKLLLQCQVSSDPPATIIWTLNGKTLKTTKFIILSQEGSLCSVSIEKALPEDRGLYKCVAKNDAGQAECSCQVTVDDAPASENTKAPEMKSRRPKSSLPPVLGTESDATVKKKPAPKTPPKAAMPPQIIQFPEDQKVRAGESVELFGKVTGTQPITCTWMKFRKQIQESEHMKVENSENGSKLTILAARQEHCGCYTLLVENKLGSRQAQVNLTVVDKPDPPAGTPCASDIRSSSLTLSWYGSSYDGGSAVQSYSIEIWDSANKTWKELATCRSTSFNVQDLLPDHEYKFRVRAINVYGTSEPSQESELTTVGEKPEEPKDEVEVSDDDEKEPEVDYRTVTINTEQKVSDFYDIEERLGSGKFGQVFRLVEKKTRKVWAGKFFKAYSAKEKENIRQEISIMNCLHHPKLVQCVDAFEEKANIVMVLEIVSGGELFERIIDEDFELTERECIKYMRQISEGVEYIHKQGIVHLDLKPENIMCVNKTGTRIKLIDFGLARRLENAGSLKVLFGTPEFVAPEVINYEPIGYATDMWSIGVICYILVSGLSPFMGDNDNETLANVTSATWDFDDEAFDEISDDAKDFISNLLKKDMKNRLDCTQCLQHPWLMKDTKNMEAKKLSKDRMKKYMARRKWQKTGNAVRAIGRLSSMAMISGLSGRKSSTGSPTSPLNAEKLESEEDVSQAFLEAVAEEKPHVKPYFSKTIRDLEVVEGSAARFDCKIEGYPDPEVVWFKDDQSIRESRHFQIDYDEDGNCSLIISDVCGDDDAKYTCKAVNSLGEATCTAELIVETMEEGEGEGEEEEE

Ephrin type-B receptor 3 = target: T1, Ephrin type-B receptor 3 (Homo sapiens, UniProt P54753)
T1 sequence (P54753 whole entry): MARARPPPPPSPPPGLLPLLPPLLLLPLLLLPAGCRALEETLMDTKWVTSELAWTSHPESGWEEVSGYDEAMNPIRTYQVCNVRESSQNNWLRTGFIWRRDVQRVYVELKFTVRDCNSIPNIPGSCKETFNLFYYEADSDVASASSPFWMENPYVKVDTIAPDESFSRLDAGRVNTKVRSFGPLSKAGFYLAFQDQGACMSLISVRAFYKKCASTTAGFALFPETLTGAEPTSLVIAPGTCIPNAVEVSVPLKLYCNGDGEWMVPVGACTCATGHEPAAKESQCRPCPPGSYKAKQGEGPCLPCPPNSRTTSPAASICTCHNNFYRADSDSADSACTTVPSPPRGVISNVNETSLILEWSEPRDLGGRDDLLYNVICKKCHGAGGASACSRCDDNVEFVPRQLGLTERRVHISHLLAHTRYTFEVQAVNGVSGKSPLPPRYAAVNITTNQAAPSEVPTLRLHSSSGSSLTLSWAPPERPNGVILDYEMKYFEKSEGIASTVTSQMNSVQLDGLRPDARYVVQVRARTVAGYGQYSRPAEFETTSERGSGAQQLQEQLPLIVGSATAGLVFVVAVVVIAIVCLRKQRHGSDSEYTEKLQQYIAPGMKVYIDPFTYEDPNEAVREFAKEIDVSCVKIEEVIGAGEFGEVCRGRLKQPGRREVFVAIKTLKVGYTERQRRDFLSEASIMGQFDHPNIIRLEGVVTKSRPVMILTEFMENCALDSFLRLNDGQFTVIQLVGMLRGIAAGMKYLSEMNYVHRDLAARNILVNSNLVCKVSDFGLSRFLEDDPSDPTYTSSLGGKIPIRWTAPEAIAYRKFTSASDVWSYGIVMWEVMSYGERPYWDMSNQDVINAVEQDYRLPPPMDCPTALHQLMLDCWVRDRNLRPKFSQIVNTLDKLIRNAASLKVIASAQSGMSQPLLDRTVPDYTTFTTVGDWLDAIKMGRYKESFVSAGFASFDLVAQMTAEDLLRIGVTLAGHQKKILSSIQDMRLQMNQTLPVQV

[5] = target: Platelet-derived growth factor receptor beta (Homo sapiens, UniProt P09619)
[6] = target: Mitogen-activated protein kinase kinase kinase 1 (Homo sapiens, UniProt Q13233)
[7] = target: T2, Probable ATP-dependent RNA helicase DDX6 (Homo sapiens, UniProt P26196)
T2 sequence (P26196 whole entry): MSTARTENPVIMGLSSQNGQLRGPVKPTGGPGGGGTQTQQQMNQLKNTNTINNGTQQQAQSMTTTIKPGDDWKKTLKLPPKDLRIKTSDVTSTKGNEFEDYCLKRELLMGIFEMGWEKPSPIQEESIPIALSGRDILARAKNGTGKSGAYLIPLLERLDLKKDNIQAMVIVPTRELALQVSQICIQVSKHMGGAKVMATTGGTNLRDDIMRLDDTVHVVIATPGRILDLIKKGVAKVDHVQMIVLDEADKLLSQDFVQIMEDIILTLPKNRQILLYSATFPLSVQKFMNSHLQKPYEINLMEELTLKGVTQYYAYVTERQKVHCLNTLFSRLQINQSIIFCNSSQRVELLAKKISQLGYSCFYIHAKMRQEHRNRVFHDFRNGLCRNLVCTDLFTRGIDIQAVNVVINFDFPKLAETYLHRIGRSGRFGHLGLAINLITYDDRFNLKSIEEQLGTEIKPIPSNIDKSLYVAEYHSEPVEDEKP

[8] = target: Serine/threonine-protein kinase N1 (Homo sapiens, UniProt Q16512)
[9] = target: Tyrosine-protein kinase Fer (Homo sapiens, UniProt P16591)
Chain of Tyrosine-protein kinase Fer (P16591 whole entry): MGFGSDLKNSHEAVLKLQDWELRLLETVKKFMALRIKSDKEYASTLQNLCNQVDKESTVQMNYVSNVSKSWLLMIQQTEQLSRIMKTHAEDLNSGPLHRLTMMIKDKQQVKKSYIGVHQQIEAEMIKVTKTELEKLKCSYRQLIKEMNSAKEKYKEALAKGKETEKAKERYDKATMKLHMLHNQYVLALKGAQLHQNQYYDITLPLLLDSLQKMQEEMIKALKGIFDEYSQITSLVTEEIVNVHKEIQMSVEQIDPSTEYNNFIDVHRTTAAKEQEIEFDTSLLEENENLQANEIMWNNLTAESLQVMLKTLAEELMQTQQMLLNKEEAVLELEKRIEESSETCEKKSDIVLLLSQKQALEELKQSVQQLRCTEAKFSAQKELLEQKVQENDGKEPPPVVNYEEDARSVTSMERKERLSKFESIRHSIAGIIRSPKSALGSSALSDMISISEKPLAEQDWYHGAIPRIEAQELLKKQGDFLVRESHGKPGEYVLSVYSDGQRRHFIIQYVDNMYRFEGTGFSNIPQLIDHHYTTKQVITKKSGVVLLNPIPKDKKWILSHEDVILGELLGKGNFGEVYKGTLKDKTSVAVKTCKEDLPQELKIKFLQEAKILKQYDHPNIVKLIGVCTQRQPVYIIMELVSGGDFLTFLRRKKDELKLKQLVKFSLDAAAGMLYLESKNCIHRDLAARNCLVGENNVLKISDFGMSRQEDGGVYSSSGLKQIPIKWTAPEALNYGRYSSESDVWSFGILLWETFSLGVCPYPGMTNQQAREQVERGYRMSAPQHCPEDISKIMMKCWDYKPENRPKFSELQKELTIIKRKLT

[10] = target: Ribosomal protein S6 kinase alpha-3 (Homo sapiens, UniProt P51812)
[11] = target: Serine/threonine-protein kinase N2 (Homo sapiens, UniProt Q16513)

Chain of Serine/threonine-protein kinase SIK3 (Q9Y2K2 whole entry): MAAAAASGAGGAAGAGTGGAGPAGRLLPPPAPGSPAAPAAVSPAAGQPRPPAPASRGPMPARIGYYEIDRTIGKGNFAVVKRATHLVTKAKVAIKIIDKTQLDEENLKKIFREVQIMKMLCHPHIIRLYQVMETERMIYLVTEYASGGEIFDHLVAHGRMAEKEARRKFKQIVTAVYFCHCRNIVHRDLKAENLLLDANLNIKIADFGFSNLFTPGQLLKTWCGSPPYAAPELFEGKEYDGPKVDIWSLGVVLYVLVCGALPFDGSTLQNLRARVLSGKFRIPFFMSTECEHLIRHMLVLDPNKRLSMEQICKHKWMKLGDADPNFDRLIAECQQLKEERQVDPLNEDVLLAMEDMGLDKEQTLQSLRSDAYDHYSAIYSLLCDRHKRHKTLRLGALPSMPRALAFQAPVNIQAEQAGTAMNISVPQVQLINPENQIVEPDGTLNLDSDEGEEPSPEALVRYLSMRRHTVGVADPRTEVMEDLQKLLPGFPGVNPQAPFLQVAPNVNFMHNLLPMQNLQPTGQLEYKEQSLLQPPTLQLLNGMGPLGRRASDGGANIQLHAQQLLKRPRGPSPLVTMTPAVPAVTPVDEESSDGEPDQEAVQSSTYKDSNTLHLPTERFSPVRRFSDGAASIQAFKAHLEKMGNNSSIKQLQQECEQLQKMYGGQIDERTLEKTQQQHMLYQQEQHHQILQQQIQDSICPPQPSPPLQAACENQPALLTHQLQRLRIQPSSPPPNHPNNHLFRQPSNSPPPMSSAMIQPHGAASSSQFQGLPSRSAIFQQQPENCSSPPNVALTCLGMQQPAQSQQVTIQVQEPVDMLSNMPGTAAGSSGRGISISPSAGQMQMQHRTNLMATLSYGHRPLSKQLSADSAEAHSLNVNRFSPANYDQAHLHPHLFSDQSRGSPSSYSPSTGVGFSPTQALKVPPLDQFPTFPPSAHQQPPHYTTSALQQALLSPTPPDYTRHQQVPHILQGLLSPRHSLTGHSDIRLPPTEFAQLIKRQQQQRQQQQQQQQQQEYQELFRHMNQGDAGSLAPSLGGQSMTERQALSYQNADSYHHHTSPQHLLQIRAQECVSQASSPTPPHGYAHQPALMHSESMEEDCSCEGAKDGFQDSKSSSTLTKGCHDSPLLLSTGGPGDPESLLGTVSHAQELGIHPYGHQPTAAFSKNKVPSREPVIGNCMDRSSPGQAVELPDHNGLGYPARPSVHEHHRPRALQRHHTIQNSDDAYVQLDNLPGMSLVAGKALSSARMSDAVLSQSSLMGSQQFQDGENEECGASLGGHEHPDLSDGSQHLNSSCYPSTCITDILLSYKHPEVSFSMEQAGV

Compound | Kd [3] | Kd [7] | Kd [9] | Kd [10] | Kd [11] | Kd [1] | Kd [2] | Kd (LIM domain kinase 1) | Kd [4] | Kd (Ephrin type-B receptor 3) | Kd [5] | Kd [6] | Kd [8]
C[C@]1(O)C[C@@H](c2nc(-c3ccc4ccc(-c5ccccc5)nc4c3)c3c(N)nccn32)C1 [LINSITINIB] | > 30 µM (inactive) | > 30 µM (inactive) |  |  |  | > 30 µM (inactive) | > 30 µM (inactive) | > 30 µM (inactive) | > 30 µM (inactive) | > 30 µM (inactive) | > 30 µM (inactive) | > 30 µM (inactive) | > 30 µM (inactive)
CN(c1ncccc1CNc1nc(Nc2ccc3c(c2)CC(=O)N3)ncc1C(F)(F)F)S(C)(=O)=O [PF-00562271] | > 30 µM (inactive) | > 30 µM (inactive) |  |  |  | > 30 µM (inactive) | > 30 µM (inactive) |  | > 30 µM (inactive) | > 30 µM (inactive) |  | > 30 µM (inactive) | 7.96 µM (active)
Cn1c(=O)n(-c2ccc(C(C)(C)C#N)cc2)c2c3cc(-c4cnc5ccccc5c4)ccc3ncc21 [DACTOLISIB] | > 30 µM (inactive) | > 30 µM (inactive) | > 30 µM (inactive) |  |  | > 30 µM (inactive) | > 30 µM (inactive) |  | > 30 µM (inactive) | > 30 µM (inactive) |  | > 30 µM (inactive) | > 30 µM (inactive)
O=S(=O)(c1cccc2cnccc12)N1CCCNCC1 [FASUDIL] | > 30 µM (inactive) | > 30 µM (inactive) | > 30 µM (inactive) |  |  | > 30 µM (inactive) | > 30 µM (inactive) |  | > 30 µM (inactive) | > 30 µM (inactive) | > 30 µM (inactive) | > 30 µM (inactive) | 0.841 µM (active)
COc1cc2c(Oc3ccc4[nH]c(C)cc4c3F)ncnc2cc1OCCCN1CCCC1 [CEDIRANIB] | > 30 µM (inactive) | > 30 µM (inactive) |  |  |  |  |  |  |  |  |  |  | 
C=CCn1c(=O)c2cnc(Nc3ccc(N4CCN(C)CC4)cc3)nc2n1-c1cccc(C(C)(C)O)n1 [ADAVOSERTIB] | > 30 µM (inactive) | > 30 µM (inactive) | > 30 µM (inactive) |  |  | > 30 µM (inactive) | > 30 µM (inactive) |  | > 30 µM (inactive) | > 30 µM (inactive) | > 30 µM (inactive) | > 30 µM (inactive) | > 30 µM (inactive)
CN(C)C/C=C/C(=O)Nc1cc2c(Nc3ccc(F)c(Cl)c3)ncnc2cc1O[C@H]1CCOC1 [AFATINIB] | > 30 µM (inactive) | > 30 µM (inactive) |  |  |  |  |  |  |  |  |  |  | 
C[C@@]1(C(=O)Nc2ccc(F)nc2)CCCN1c1nc(Nc2cc(C3CC3)n[nH]2)c2cccn2n1 [BMS-754807] | > 30 µM (inactive) | > 30 µM (inactive) |  |  |  |  |  |  |  |  |  |  | 
CCN(CCCOc1ccc2c(Nc3cc(CC(=O)Nc4cccc(F)c4)n[nH]3)ncnc2c1)CCOP(=O)(O)O [BARASERTIB] | > 30 µM (inactive) | > 30 µM (inactive) | > 30 µM (inactive) |  | > 30 µM (inactive) | > 30 µM (inactive) | > 30 µM (inactive) |  | > 30 µM (inactive) | > 30 µM (inactive) |  | > 30 µM (inactive) | > 30 µM (inactive)

Now from value to compound, other results behind:

Kd [3] | Kd [7] | Kd [9] | Kd [10] | Kd [11] | Compound | Kd [1] | Kd [2] | Kd (LIM domain kinase 1) | Kd [4] | Kd (Ephrin type-B receptor 3) | Kd [5] | Kd [6] | Kd [8]
> 30 µM (inactive) | > 30 µM (inactive) |  |  |  | Cn1cnc2c(F)c(Nc3ccc(Br)cc3Cl)c(C(=O)NOCCO)cc21 [SELUMETINIB] |  |  |  |  |  |  |  | 
> 30 µM (inactive) | > 30 µM (inactive) |  |  |  | COc1cc2c(N3CCN(C(=O)Nc4ccc(OC(C)C)cc4)CC3)ncnc2cc1OCCCN1CCCCC1 [TANDUTINIB] |  |  |  |  |  |  |  | 
> 30 µM (inactive) | > 30 µM (inactive) | > 30 µM (inactive) | > 30 µM (inactive) | > 30 µM (inactive) | CC(C)(O)CC(=O)NCCn1ccc2ncnc(Nc3ccc(Oc4cccc(C(F)(F)F)c4)c(Cl)c3)c21 [TAK-285] | > 30 µM (inactive) | > 30 µM (inactive) | > 30 µM (inactive) | > 30 µM (inactive) | > 30 µM (inactive) | > 30 µM (inactive) | > 30 µM (inactive) | > 30 µM (inactive)
> 30 µM (inactive) | > 30 µM (inactive) |  |  |  | CC1(C)CNc2cc(NC(=O)c3cccnc3NCc3ccncc3)ccc21 [MOTESANIB] |  |  |  |  |  |  |  | 
